Experimental data published in US10570152B2, “Antibacterial therapeutics and prophylactics” (VYOME BIOSCIENCES PVT. LTD., priority 2015, dated 2020).
Values after ≈ are worked out from the molar mass of the structure shown. Where two headings read alike, the source gives them in different places.

How the values were obtained:
[1] = system: A. baumannii ATCC 1906; assay: MIC by micro broth dilution; assay type: cell-based; details: Acinetobacter baumannii, ATCC1906, read-out: Minimum inhibitory concentration (MIC)
Protocol: (§1) MIC of DART molecules were determined by micro broth dilution as per CLSI guidelines. Bacterial strains were cultured in Brain Heart Infusion Agar (BHIA) at 37° C. for 24 h. For MIC determination, BHI broth (100 μl) was added to each of the wells of a 96 well plate. 100 μl of broth containing drug was added to the first well (1A to 1H) and thereafter serial (double) dilutions were carried out for up to 10 wells (column 1 to column 10 of the 96 well plate). Bacterial inoculum was prepared by adjusting the bacterial culture turbidity to 0.5 McFarland standard (approximately 1.5×10^8 cells/ml) and further diluted (100 times with sterile BHI broth). Diluted bacterial suspension (100 μl) was added to each well except sterility control wells (column 12 of 96 well plate). The plates were incubated at 37° C. for 24 h. The MIC of the test compound was measured after addition of Alamar blue dye.

[2] = system: A. baumannii CCARM 12001; assay: MIC by micro broth dilution; assay type: cell-based; details: Acinetobacter baumannii, CCARM12001, read-out: Minimum inhibitory concentration (MIC)
Protocol: as §1

[3] = system: A. baumannii CCARM 12020; assay: MIC by micro broth dilution; assay type: cell-based; details: Acinetobacter baumannii, CCARM12020, read-out: Minimum inhibitory concentration (MIC)
Protocol: as §1

[4] = system: E. aerogenes M2-1; assay: MIC by micro broth dilution; assay type: cell-based; details: Klebsiella aerogenes, M21, read-out: Minimum inhibitory concentration (MIC)
Protocol: as §1

[5] = system: E. aerogenes NCIM 5139; assay: MIC by micro broth dilution; assay type: cell-based; details: Klebsiella aerogenes, NCIM5139, read-out: Minimum inhibitory concentration (MIC)
Protocol: as §1

[6] = system: E. coli BAA 196; assay: MIC by micro broth dilution; assay type: cell-based; details: Escherichia coli, BAA196, read-out: Minimum inhibitory concentration (MIC)
Protocol: as §1

[7] = system: E. coli MTCC 1687; assay: MIC by micro broth dilution; assay type: cell-based; details: Escherichia coli, MTCC1687, read-out: Minimum inhibitory concentration (MIC)
Protocol: as §1

[8] = system: E. faecium CCARM 5207; assay: MIC by micro broth dilution; assay type: cell-based; details: Enterococcus faecium, CCARM5207, read-out: Minimum inhibitory concentration (MIC)
Protocol: as §1

[9] = system: E. faecium NCIM 5421; assay: MIC by micro broth dilution; assay type: cell-based; details: Enterococcus faecium, NCIM5421, read-out: Minimum inhibitory concentration (MIC)
Protocol: as §1

[10] = system: E. fecalis CCARM 5168; assay: MIC by micro broth dilution; assay type: cell-based; details: read-out: Minimum inhibitory concentration (MIC)
Protocol: as §1

[11] = system: K. pneumonia ATCC 13883; assay: MIC by micro broth dilution; assay type: cell-based; details: for MIC: Klebsiella pneumoniae, ATCC13883, K. pneumonia ATCC 13883, read-out: Minimum inhibitory concentration (MIC)
Protocol: as §1

[12] = system: P. aeruginosa ATCC 27853; assay: MIC by micro broth dilution; assay type: cell-based; details: Pseudomonas aeruginosa, ATCC27853, read-out: Minimum inhibitory concentration (MIC)
Protocol: as §1

[13] = system: P. aeruginosa CCARM 2161; assay: MIC by micro broth dilution; assay type: cell-based; details: Pseudomonas aeruginosa, CCARM2161, read-out: Minimum inhibitory concentration (MIC)
Protocol: as §1

[14] = system: P. aeruginosa CCARM 2204; assay: MIC by micro broth dilution; assay type: cell-based; details: Pseudomonas aeruginosa, CCARM2204, read-out: Minimum inhibitory concentration (MIC)
Protocol: as §1

[15] = system: S. aureus ATCC 43300; assay: MIC by micro broth dilution; assay type: cell-based; details: for MIC: Staphylococcus aureus, ATCC43300, S. aureus ATCC 43300, read-out: Minimum inhibitory concentration (MIC)
Protocol: as §1

[16] = system: S. aureus CCARM 3505; assay: MIC by micro broth dilution; assay type: cell-based; details: Staphylococcus aureus, CCARM3505, read-out: Minimum inhibitory concentration (MIC)
Protocol: as §1

[17] = system: S. aureus MTCC 6908; assay: MIC by micro broth dilution; assay type: cell-based; details: Staphylococcus aureus, MTCC6908, read-out: Minimum inhibitory concentration (MIC)
Protocol: as §1

[18] = system: S. epidermidis ATCC 35984; assay: MIC by micro broth dilution; assay type: cell-based; details: Staphylococcus epidermidis, ATCC35984, read-out: Minimum inhibitory concentration (MIC)
Protocol: as §1

[19] = system: S. epidermidis S12-1; assay: MIC by micro broth dilution; assay type: cell-based; details: Staphylococcus epidermidis, S121, read-out: Minimum inhibitory concentration (MIC)
Protocol: as §1

[20] = system: Gram negative pathogens; assay: MIC interpretations, Gram negative pathogens; assay type: cell-based
Protocol: as §1

[21] = system: S. epidermidis ATCC 35984 biofilm; assay: Biofilm disruption assay (MTT) with compounds and compound loaded beads; assay type: cell-based; details: for EC50: Staphylococcus epidermidis
Protocol: S. epidermidis ATCC 35984 was grown in Brain Heart Infusion Agar (BHIA) at 37° C. for 24 h. The loop full of bacterial culture was suspended in sterile water and matched the turbidity against 0.5 McFarland Standard (approximately 1.5×10^8), 100 μl of culture suspension was added into each well of the 96 well plate and plates were incubated at 37° C. for 48 h for biofilm formation. The biofilm formed in each well was washed twice with sterile water to remove the planktonic cells. Then biofilm was treated with 100 yl of BHI broth suspended with various concentrations of DART molecules, followed by incubation of the plates at 37° C. for 24 h. Subsequently the biofilm in the wells were stained with MTT reagent and the plates were incubated at 37° C. for 2 h. The precipitate formed in the wells was dissolved in 100 μl of dimethyl sulfoxide (DMSO) and the absorbance was measured at 600 nm in multi well plate reader to determine the minimum biofilm inhibitory concentration (MBIC). The MBIC was calculated by subtracting the absorbance value of each drug treated sample from that of 48 h growth control.

[22] = system: P. acnes CCARM 9010 induced paw inflammation; assay: Anti-inflammatory action in vivo, rat paw edema model; set-up: species or system Sprague Dawley rats; details: topical, 24 h post initiation of treatment (32 h post induction)
Text: Host inflammation is one of the crucial clinical feature of most of the indications associated with bacterial infections. The inventors used an exemplary compound of the invention (Compound 2) to test the anti-inflammatory effects in vivo using rat paw edema model. Inflammation was induced using one of the opportunistic pathogens Propionibacterium acnes prevalent in implant associated infections. Sprague Dawley rats were used for the study and infection was induced by P. acnes CCARM 9010. An inoculum of 1×10^9 CFU/ml of the heat killed bacteria was injected to the plantar side of the right hind paw (˜2×10^7 CFU/paw) except in sham control where saline was injected. Treatments were initiated 8 h post injection by applying the test formulation of Compound 2 (30 mg) twice daily to the plantar surface of the right hind paw and gently rubbing 50 times with the index finger. Comparators Acnedap (dapsone 5% gel) and adapalene gel (Adaferin®) were applied twice daily and once daily based on clinical prescription dosage. Paw sizes were measured in millimeters using Vernier calipers at the start of the infection, 8 h post infection, and 24 h post initiation of treatment (32 h post induction of inflammation). The change in paw size, due to inflammation, was evaluated as the difference between the paw size measured at each time point and the basal paw size measured immediately before edema induction.

[23] = system: S. epidermidis S5-2; assay: Sequential ZIB (zone of inhibition) assay for PMMA beads; assay type: cell-based, Staphylococcus epidermidis; details: SmartSet HV impregnated beads
Protocol: S. epidermidis S5-2 cells were grown in Brain Heart Infusion Agar (BHIA) at 37° C. for 24 h. 100 μl of 0.5 McFarland equal bacterial suspension was spread on BHA plates. Drug loaded beads were placed above these plates. Plates were incubated at 37° C. for 24 h. Next day, zone of inhibition (ZOI) the beads were measured following which the beads were placed on fresh BHA plates with bacterial suspension spread and this experiment was continued up to seven days. The drug release pattern was determined by compiling and analyzing the ZOI data of beads on each ZOI cycle up to seven days.

SMILES | MIC [1] [µg/mL] | MIC [2] [µg/mL] | MIC [3] [µg/mL] | MIC [6] [µg/mL] | MIC [7] [µg/mL] | MIC [9] [µg/mL] | MIC [11] [µg/mL] | MIC [12] [µg/mL] | MIC [13] [µg/mL] | MIC [14] [µg/mL] | MIC [15] [µg/mL] | MIC [16] [µg/mL] | MIC [17] [µg/mL] | MIC [18] [µg/mL] | MIC [19] [µg/mL] | further results
CC1SC2C(C(=O)O)C(=O)c3cc(F)c(N4CCN(CC(=O)c5ccccn5)CC4)cc3N12 (centres unmarked) [Compound 33, 6-Fluoro-1-methyl-4-oxo-7-(4-(2-oxo-2-(pyridin-2-yl)ethyl)piperazin-1-yl)-2a,3-dihydro-1H,4H-[1,3]thiazeto[3,2-a]quinoline-3-carboxylic acid] | 0.06 (≈ 0.128 µM) | 16 (≈ 34 µM) | 4 (≈ 8.5 µM) | 2 (≈ 4.25 µM) | < 0.03 | 0.125 (≈ 0.266 µM) | 0.06 (≈ 0.128 µM) | 0.5 (≈ 1.06 µM) | 16 (≈ 34 µM) | 8 (≈ 17 µM) | 0.25 (≈ 0.531 µM) | > 16 | 0.25 (≈ 0.531 µM) | 0.13 (≈ 0.276 µM) | 8 (≈ 17 µM) | MIC [4]: 0.06 µg/mL (≈ 0.128 µM); MIC [5]: 0.0312 µg/mL (≈ 0.0663 µM); MIC [8]: 8 µg/mL (≈ 17 µM); MIC [10]: 0.5 µg/mL (≈ 1.06 µM); activity in words ([11]; Klebsiella pneumonia (susceptible)): active; MIC ([20]; Escherichia coli, resistant E. coli (MDR) and E. aerogens): ≤ 1 µg/mL; bio-activity (MIC) range ([20]; different resistant strains of P. aeruginosa, A. baumanni): 4 to 16 µg/mL
CC(=O)NC[C@H]1CN(c2ccc(N3CCN(CC(=O)Nc4ncc([N+](=O)[O-])s4)CC3)c(F)c2)C(=O)O1 [Compound 55, (S)-2-(4-(4-(5-(Acetamidomethyl)-2-oxooxazolidin-3-yl)-2-fluorophenyl)piperazin-1-yl)-N-(5-nitrothiazol-2-yl)acetamide] | > 16 | > 16 | > 16 | > 16 | > 16 | 0.06 (≈ 0.115 µM) | > 16 | > 16 | > 16 | > 16 | 0.5 (≈ 0.959 µM) | 0.25 (≈ 0.479 µM) | 0.25 (≈ 0.479 µM) | 0.06 (≈ 0.115 µM) | 0.5 (≈ 0.959 µM) | fold better activity in comparison to commercial linezolid ([15]; against MRSA): 8 fold; times more active than linezolid analogue ([15]; against MRSA): 8 times; EC50 ([21]; ATCC35984, 48 h biofilm, 24 h treatment, read-out: Concentration of compounds (mg/ml) for 50% biofilm disruption): > 2 mg/mL
Nc1ccc(S(=O)(=O)c2ccc(N)cc2)cc1 [Dapsone, dapsone, reference compound] | – | – | – | – | – | – | – | – | – | – | – | – | – | – | – | Inhibition of inflammation (%) at 24 h post treatment [22]: 43.82%
CN[C@H](CC(C)C)C(=O)N[C@H]1C(=O)N[C@@H](CC(N)=O)C(=O)N[C@H]2C(=O)N[C@H]3C(=O)N[C@H](C(=O)N[C@H](C(=O)O)c4cc(O)cc(O)c4-c4cc3ccc4O)[C@H](O)c3ccc(c(Cl)c3)Oc3cc2cc(c3O[C@@H]2O[C@H](CO)[C@@H](O)[C@H](O)[C@H]2O[C@H]2C[C@](C)(N)[C@H](O)[C@H](C)O2)Oc2ccc(cc2Cl)[C@H]1O [Vancomycin, reference compound] | – | – | – | – | – | – | – | – | – | – | – | – | – | – | – | Sequential ZOI ([23]; Day-1): 1.4 cm; Sequential ZOI ([23]; Day-2): 1.2 cm; Sequential ZOI ([23]; Day-3): 0.7 cm; Sequential ZOI ([23]; Day-4): 0.7 cm; Sequential ZOI ([23]; Day-5): 0 cm; Sequential ZOI ([23]; Day-6): 0 cm; Sequential ZOI ([23]; Day-7): 0 cm; Biofilm disruption ([21]; PMMA beads of 3 mm diameter): 40; EC50 ([21]; ATCC35984, read-out: Concentration of compounds (mg/ml) for 50% biofilm disruption): 0.02 to 0.03 mg/mL (≈ 13.8 to 20.7 µM)
